In ChEMBL document CHEMBL5725391, “1,3-diaminocyclopentane carboxamide derivatives” (2017):

Molecular target: Fatty acid synthase (Homo sapiens, UniProt P49327)
Assay: Biochemical Assay of FASN: The biochemical FASN activity testing was performed as 384 well two-time-point kinetic fluorescence intensity assay format in Greiner low volume medium binding 384-well black microtiter plates in a total assay volume of 8 μl and was used for high throughput screen. In each well 3 μl 40 nM human recombinant full-length fatty acid synthase (produced in-house in SF9 cells) were dispensed in the following assay buffer: 50 mM potassium phosphate buffer pH 7.0, 0.005% (w/v) BSA, 2 mM Glutathione, 0.02% Tween-20. Then 2 μl of 200 μM NADPH in assay buffer were added, followed by the addition of the test compounds in 10 dilution concentrations starting with 30 μM (final concentration) to get a final DMSO content of 1% (v/v). The mixture was incubated for at least 15 min at room temperature. After the pre-incubation the enzymatic reaction was started by the addition of 2 μl substrate solution (80 μM acetyl-CoA, 240 μM malonyl-CoA). A first fluorescence intensity measurement (time point one) was performed with an Envision multimode reader (Perkin Elmer LAS Germany GmbH) at excitation wavelength 340 nm (lamp mode) and emission wavelength 460 nm. The reaction was incubated for 30 minutes at room temperature. After this the fluorescence intensity was measured again in the Envision using the same parameters as described above (second time point measurement). The data were analysed by subtracting the first time point measurement value from the second time point measurement value (after the enzymatic reaction). The differences of the emission signals were determined. These reflect directly the conversion rate of NADPH. The full value used was the inhibitor-free reaction. A pharmacological zero value was used like GSK837149A (Sigma-Aldrich) in a final concentration of 5-10 μM. The inhibitory values (IC50) were determined using either the program Symyx Assay Explorer® or Condosseo® from GeneData.

Fatty acid synthase, sequence (P49327 whole entry): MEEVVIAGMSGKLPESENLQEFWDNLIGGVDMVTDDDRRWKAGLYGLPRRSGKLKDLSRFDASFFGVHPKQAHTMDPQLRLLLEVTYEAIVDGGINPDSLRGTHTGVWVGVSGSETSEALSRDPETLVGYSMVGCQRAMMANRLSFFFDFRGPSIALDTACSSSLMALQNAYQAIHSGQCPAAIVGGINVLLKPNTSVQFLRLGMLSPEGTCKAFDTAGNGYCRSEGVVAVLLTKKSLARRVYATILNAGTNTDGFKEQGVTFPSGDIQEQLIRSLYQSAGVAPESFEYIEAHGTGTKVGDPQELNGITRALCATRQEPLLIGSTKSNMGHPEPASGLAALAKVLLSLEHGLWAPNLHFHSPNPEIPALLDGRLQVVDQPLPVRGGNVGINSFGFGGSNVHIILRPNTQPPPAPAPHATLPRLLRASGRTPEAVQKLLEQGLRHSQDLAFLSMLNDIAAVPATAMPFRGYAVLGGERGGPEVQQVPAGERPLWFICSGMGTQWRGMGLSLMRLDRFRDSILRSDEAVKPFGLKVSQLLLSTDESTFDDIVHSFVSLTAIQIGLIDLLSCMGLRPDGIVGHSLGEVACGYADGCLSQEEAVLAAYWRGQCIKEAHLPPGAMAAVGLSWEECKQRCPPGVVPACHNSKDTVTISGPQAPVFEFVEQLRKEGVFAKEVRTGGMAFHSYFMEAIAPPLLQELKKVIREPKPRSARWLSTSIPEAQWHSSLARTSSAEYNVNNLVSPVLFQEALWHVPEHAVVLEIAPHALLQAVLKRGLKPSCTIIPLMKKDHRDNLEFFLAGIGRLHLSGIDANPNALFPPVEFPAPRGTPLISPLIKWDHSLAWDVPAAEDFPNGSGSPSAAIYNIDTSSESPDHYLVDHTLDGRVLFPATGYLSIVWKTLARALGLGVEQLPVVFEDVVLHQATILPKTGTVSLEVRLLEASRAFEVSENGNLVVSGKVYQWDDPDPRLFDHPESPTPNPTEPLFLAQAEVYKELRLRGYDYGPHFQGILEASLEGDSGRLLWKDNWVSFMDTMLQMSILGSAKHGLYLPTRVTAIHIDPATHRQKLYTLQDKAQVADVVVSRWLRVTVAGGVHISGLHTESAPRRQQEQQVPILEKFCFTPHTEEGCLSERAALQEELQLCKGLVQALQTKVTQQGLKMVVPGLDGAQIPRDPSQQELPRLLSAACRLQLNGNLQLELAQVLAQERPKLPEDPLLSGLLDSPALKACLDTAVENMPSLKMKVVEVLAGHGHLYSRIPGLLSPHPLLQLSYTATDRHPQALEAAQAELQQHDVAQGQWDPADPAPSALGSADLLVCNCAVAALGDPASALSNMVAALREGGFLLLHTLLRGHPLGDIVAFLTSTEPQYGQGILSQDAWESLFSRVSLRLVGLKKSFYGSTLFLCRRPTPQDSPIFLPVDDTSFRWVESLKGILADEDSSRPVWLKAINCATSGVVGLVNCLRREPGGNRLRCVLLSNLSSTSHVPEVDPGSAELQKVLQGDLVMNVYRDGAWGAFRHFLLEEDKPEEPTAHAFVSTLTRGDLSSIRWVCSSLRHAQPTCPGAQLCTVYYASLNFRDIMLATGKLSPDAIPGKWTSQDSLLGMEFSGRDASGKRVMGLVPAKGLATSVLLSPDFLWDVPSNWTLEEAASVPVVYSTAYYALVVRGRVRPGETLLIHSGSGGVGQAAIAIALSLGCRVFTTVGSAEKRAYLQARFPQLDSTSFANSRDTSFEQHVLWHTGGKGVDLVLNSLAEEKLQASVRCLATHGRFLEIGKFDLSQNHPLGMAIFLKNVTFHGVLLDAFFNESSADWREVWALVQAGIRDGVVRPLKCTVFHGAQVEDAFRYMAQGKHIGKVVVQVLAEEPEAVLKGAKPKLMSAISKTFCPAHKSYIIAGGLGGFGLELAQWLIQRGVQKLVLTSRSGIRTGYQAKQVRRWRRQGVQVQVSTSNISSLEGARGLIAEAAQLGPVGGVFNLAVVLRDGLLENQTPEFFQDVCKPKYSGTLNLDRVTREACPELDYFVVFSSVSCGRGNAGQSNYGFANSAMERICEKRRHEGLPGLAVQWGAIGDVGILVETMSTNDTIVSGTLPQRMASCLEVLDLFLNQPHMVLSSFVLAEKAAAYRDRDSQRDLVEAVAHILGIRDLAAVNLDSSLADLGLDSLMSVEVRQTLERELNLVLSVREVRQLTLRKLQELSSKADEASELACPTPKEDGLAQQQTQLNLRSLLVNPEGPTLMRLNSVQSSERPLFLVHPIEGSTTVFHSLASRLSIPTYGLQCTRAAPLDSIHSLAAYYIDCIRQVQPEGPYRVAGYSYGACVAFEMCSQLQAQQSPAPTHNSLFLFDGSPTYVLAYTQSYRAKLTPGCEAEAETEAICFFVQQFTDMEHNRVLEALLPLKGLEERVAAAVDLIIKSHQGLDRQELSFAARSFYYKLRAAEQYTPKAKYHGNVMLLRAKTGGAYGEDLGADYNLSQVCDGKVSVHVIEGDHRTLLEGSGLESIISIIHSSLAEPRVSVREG

Row | Structure (SMILES) | IC50
1 | CCC(=O)N[C@H]1CC[C@@H](N(C)C(=O)c2ccc(-c3cc(F)c4[nH]cc(C(N)=O)c4c3)cc2)C1 | < 300 nM
2 | CN(C(=O)c1ccc(-c2nc3ccccc3o2)cc1F)[C@@H]1CC[C@H](NC(=O)[C@@H]2CCCO2)C1 | < 300 nM
3 | CCC(=O)N[C@H]1CC[C@@H](N(C)C(=O)c2cnc(-c3ccc4[nH]ccc4c3)s2)C1 | < 300 nM
4 | CCC(=O)N[C@H]1CC[C@@H](N(C)C(=O)c2sc(-c3ccc4[nH]ccc4c3)nc2C)C1 | < 300 nM
5 | CCC(=O)N[C@H]1CC[C@@H](N(C)C(=O)c2ccc(-c3ccc4[nH]cc(F)c4c3)nc2)C1 | < 300 nM
6 | CCC(=O)N[C@H]1CC[C@@H](N(C)C(=O)c2ccc(-c3ccc(C#N)cc3F)cc2)C1 | < 300 nM
7 | CCC(=O)N[C@H]1CC[C@@H](N(C)C(=O)c2ccc(-c3cccc4[nH]ncc34)cc2)C1 | < 300 nM
